The values below come from US6384030B1, “Water soluble azoles as broad-spectrum antifungals” (priority 1998, dated 2002).

Values after ≈ are worked out from the molar mass of the structure shown.

For data set [1] the following is noted: Saksena et al., Bioorganic & Medicinal Chemistry Letters (1995), 5(2), 127-132; cited from earlier work.
Data set [2] deals with Candida spp. In words: Fungal susceptibility, Panel 1 (example C1). It is filed as cell-based. To be noted: Panel 1: 8 isolates of Candida spp. incl. an azole-resistant C. albicans strain; CYG broth; 37° C. for 48 hours; growth below 35% of control; read-out: geometric mean minimum inhibitory concentration-value (MIC).
Data set [3] deals with other fungi (3 dermatophyte isolates, Aspergillus migatus, Cryptococcus neoformans, Sporothrix schenckii). Put plainly: Fungal susceptibility, Panel 2 (example C1). The format is cell-based. To be noted: Panel 2: 6 other fungi (3 dermatophytes, Aspergillus, Cryptococcus neoformans, Sporothrix schenckii); CYG broth; growth below 35% of control.
In data set [4] the test system is Candida spp. Put plainly: Minimum fungicidal concentration (example C2). It is filed as cell-based. To be noted: 24 Candida isolates; RPMI 1640 buffered with MOPS, 2% glucose; subculture on Sabouraud glucose agar; read-out: Geometric mean minimum fungicidal concentrations. How it is done: (§1) A panel of 24 Candida isolates, 8 isolates of Aspergillus spp., 8 dermatophytes, 10 Zygomycetes, 10 Fusarium spp., 2 Cryptococcus neoformans and 8 dematiaceous hyphomycetes was used.
(§2) Inocula were prepared as in example C1 but the culture medium used in this test was RPMI 1640 buffered with MOPS, with 2% glucose (Odds, F. C., Antimicrobial Agents and Chemotherapy, 1995, 39, 2051-2060). Test compounds were added to the medium from DMSO solutions to give final concentrations in the series 10, 3.2, 1.0, 0.32, 0.10, 0.032, 0.010,0.0032 and 0.0010 μM. Incubation times and temperatures were as in example C1. Once the microdilution plates had been read for growth turbidity spectrophotometrically, samples of material were removed from the test cultures to inoculate 10 μl volumes on plates of Sabouraud glucose agar. The plates were incubated at 37° C. for 48 hours for yeasts or at other times and temperatures for other species. Geometric mean minimum fungicidal concentrations in μM which were determined as the lowest concentrations of the test compound that completely or substantially eliminated reappearance of fungal growth on the Sabouraud plates

Another data set relates to Fusarium spp. In words: Minimum fungicidal concentration (example C2). It is filed as cell-based. To be noted: 10 Fusarium spp.; RPMI 1640 buffered with MOPS, 2% glucose; subculture on Sabouraud glucose agar; read-out: Geometric mean minimum fungicidal concentrations. How it is done: as §1, §2
In a further data set the test system is Zygomycetes. Put plainly: Minimum fungicidal concentration (example C2). The format is cell-based. To be noted: 10 Zygomycetes; RPMI 1640 buffered with MOPS, 2% glucose; subculture on Sabouraud glucose agar; read-out: Geometric mean minimum fungicidal concentrations. As for the experimental part:
as §1, §2

Data set [5] is described as follows: Water solubility (example D1). The format is physicochemical. To be noted: aqueous buffer, thermodynamic from solid; water buffered with 0.1 M citric acid and 0.2 M Na2HPO4 (pH =4); shaken 1 day at room temperature; UV.

On to `CN(C)CCn1ncn(-c2ccc(N3CCN(c4ccc(OC[C@@H]5CO[C@@](Cn6cncn6)(c6ccc(F)cc6F)C5)cc4)CC3)cc2)c1=O` (relative stereo) [(3R-cis)-4-[4-[4-[4-[[5-(2,4-difluorophenyl)tetrahydro-5-(1H-1,2,4-triazol-1-ylmethyl)-3-furanyl]methoxy]phenyl]-1-piperazinyl]phenyl]-2-[2-(dimethylamino)ethyl]-2,4-dihydro-3H-1,2,4-triazol-3-one], for which the “activity as antifungal compared to SCH 51048” value in data set [1] was “profoundly less active”.
A word on the solubility: it is the dissolved amount per volume that the medium holds. A higher solubility goes with a readily soluble substance. `C[C@@H](N[C@H](C)[C@H](C)n1ncn(-c2ccc(N3CCN(c4ccc(OC[C@@H]5CO[C@@](Cn6cncn6)(c6ccc(F)cc6F)O5)cc4)CC3)cc2)c1=O)c1ccccc1` (relative stereo) [Compound 86, [2S-[2α,4α[(R*,S*)(S*)]]]-4-[4-[4-[4-[[2-(2,4-difluoropheny)-2-(1H-1,2,4-triazol-1-yl-methyl)-1,3-dioxolan-4-yl]methoxy]phenyl]-1-piperazinyl]phenyl]-2,4-dihydro-2-[2-[(1-phenylethyl)amino]-1-methylpropyl]-3H-1,2,4-triazol-3-one]: the MIC (in the data set with Candida spp. [2]; in data set [3]) was 0.01 to 1 µM (≈ 0.00792 to 0.792 µg/mL) each time. The MFC in the data set on Candida spp. [4], in the data set with Fusarium spp. and in the data set on Zygomycetes was 1 to 10 µM (≈ 0.792 to 7.92 µg/mL) each time. Also, the solubility at 1 day in data set [5] was above 100 µg/mL.
